Values quoted from earlier work as cited in patent publication US6444469B1, “Methods for altering the rate of plant development and plants obtained therefrom” (Yale University, priority 1996, dated 2002).

System: late-flowering strains and mutants of Arabidopsis
Settings: treatment of seeds; some late-flowering strains and mutants

## Nc1ncn([C@@H]2O[C@H](CO)[C@@H](O)[C@H]2O)c(=O)n1 [Line 5-AzaC, 5-azacytidine]
  Effect on flowering: early flowering
